Assay: Efficiency of inclusion of active ingredient added subsequently to a finished liposome gel
Format: physicochemical
From the text: This object is achieved by a method for producing liposomes which comprise as active ingredient at least one physiologically active or/and diagnostic compound, by production of a mixture of membrane-forming amphiphiles, dispersion of the mixture in water and high pressure homogenization of the dispersion until the liposomes are formed, which comprises • (a) adding the active ingredient to any liposome preparation, preferably a liposome gel, which contains at least 20% by weight lipid, and • (b) incubating the active ingredient-containing mixture, where appropriate with mechanical agitation, until • (i) hydrophilic active ingredients are distributed in the liposomes and between the liposomes in accordance with the proportions by volume of aqueous medium inside and outside the liposomes in the preparation (equilibrium state) or • (ii) lipophilic compounds are incorporated in the lipid bilayer, or • (iii) amphiphilic compounds have surmounted the lipid bilayer and are incorporated or associated in the outer regions of the lipid bilayer.
A liposome gel which contains the cytostatic gemcitabine as active component cannot be autoclaved because this antitumor agent promotes the hydrolysis of the phospholipids, leading to complete phospholipid degradation under standard conditions during autoclaving. […]

Row | SMILES | efficiency of inclusion (added as solid substance to the liposome gel, incubated with shaking at 50° C. for 3 hours) [%] | efficiency of inclusion (autoclaved liposome gel mixed with concentrated buffered gemcitabine solution, incubation at 60° C. for four hours (equilibrium))
1 | C[C@@H]1[C@H](O)[C@@H](C)/C=C/C=C/C=C/C=C/C=C/C=C/C=C/[C@H](O[C@@H]2O[C@H](C)[C@@H](O)[C@H](N)[C@@H]2O)C[C@@H]2O[C@](O)(C[C@@H](O)C[C@@H](O)[C@H](O)CC[C@@H](O)C[C@@H](O)CC(=O)O[C@H]1C)C[C@H](O)[C@H]2C(=O)O [amphotericin B] | 95 | –
2 | Nc1ccn([C@@H]2O[C@H](CO)[C@@H](O)C2(F)F)c(=O)n1 [gemcitabine] | – | more than 30%
